In patent US20220096449A1, “METHOD OF TREATMENT WITH TRADIPITANT” (Vanda Pharmaceuticals Inc., priority 2018, published 2022):

Assays:
NK-1 receptor [1] = target: NK-1 receptor (Meriones unguiculatus, UniProt Q5DUB1); assay: NK-1 agonist (GR73632)-induced foot-tapping behavior in gerbils; type: in vivo; parameters: from tissue; host or cells: living gerbils (central NK-1 receptors); conditions: gerbil
Protocol: Male Mongolian gerbils (Harlan Sprague Dawley, Indianapolis, Ind.) weighing 26 to 40 grams are administered the selective neurokinin-1 receptor agonist GR73632 ([…]) via direct, vertical, free-hand intracerebroventricular (icv) injection to a depth of 4.5 mm below bregma with a cuffed 27-gauge needle attached to a 50 μl Hamilton syringe Immediately after injection, animals are placed individually into isolated chambers with pressure-sensitive velocimeter platform floors (San Diego Instruments acoustic startle apparatus) that detect and quantify vibration. The San Diego Instruments “SR” DOS-based computer program is used on a PC to record the number of foot-taps over the following 6 to 10 minutes, beginning 30 seconds after the floor is lightly tapped. Raw data are converted with a Microsoft® Excel® (Microsoft® and Excel® are registered trademarks of Microsoft Corp., Redmond, Wash.) macro that determines the number of events over threshold (125) in each 250-millisecond time bin over the 5.5 minutes following onset of observation. The total number and average intensity of events over the duration is determined. Total number of taps is analyzed with one-way ANOVA and post-hoc Dunnett's test using JMP statistical software.
A dose-response curve (with doses of 0.3, 1, 3 and 10 pmols, icv) is initially generated with the NK-1 agonist GR73632.
NK-1 antagonists are tested for their ability to attenuate GR73632-induced foot tapping. NK-1 antagonists are administered (po) via oral feeding tube at doses and time points specified in each experiment. All animals receive only one dose of NK-1 antagonists in all tests.
NK-1 antagonists are administered at multiple doses (at least 3; one dose per animal) and response to GR73632 is measured.
NK-1 receptor antagonists are administered at multiple pre-treatment times (one administration per animal) including at 0.5, 1, 2, 4, 7, 16, and 24 hours prior to GR73632 injection. GR73632 (Peninsula Labs, CA) is dissolved in saline. Tradipitant is dissolved in 1% CMC/0.5% SLS/0.085% PVP vehicle.

[2] = test system: patients with gastroparesis; assay: Phase II gastroparesis study, open label extension (Example 4); type: in vivo, human
From the text: In a phase II study of tradipitant in patients with gastroparesis, participants initially enter 4 week screening period prior to treatment with tradipitant, during which they answer a daily symptom questionnaire rating their nausea severity on a scale of 0 to 5, in which 0 represents no nausea, 1 represents very mild nausea, 2 represents mild nausea, 3 represents moderate nausea, 4 represents severe nausea, and 5 represents very severe nausea. After the 4 week screening period, patients enter the double blind randomized portion of the study, in which they receive either tradipitant 85 mg bid, or placebo. After 4 weeks of blinded study drug treatment, patients have the opportunity to enter an additional 8 week open label extension, during which each subject receives tradipitant 85 mg bid. 64 subjects participate in at least one week of the open label tradipitant dosing portion of the study. The average daily diarized nausea scores are reported for subjects during the 4 week screening period and during the up to 8 week open label extension.

NK-1 receptor [3] = target: T1, NK-1 receptor (Cavia porcellus, UniProt P30547); assay: GR73632-induced vocalization in guinea pigs; type: in vivo, guinea pig
T1 construct: from tissue; host or cells: living guinea pigs (central NK-1 receptors)
T1 sequence (P30547 whole entry): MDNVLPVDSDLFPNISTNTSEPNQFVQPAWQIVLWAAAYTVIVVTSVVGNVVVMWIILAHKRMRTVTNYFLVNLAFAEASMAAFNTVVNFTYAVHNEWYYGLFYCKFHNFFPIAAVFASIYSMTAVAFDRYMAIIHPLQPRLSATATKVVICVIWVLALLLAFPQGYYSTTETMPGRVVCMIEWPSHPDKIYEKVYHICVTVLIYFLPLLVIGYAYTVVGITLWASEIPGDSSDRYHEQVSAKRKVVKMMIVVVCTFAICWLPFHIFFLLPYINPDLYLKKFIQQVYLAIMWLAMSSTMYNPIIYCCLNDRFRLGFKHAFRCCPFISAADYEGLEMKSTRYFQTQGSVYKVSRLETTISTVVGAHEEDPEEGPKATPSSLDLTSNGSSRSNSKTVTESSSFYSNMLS
Protocol: Male Dunkin/Hartley guinea pigs (200 to 250 grams) are orally administered either vehicle or an NK-1 antagonist. Approximately 45 minutes later (for dose response studies), the animals are anesthetized and 0.1 nmol of GR73632 (SP analog) in a vehicle volume of 5 μl is injected into the cerebral ventricle at the intersection of bregma and the midline of the skull. Animals are placed in a dark testing chamber located inside of a sound attenuation cubicle and vocalizations are recorded for 30 minutes following recovery from anesthesia. The time spent vocalizing is quantified for each animal. In the duration of action study, 0.1 mg/kg of tradipitant or vehicle solution is administered orally and then 2, 4, or 7 hours later, 0.1 nmol of GR73632 is administered into the cerebral ventricle as described above. Vocalizations are recorded and quantified as indicated above. Vehicle solutions are either CMC (FIG. 4 data) or an ethanol/emulphor solution (FIGS. 5 and 6). Data is analyzed using one-tailed t-tests.

NK-3 receptor = target: T2, NK-3 receptor (Homo sapiens, UniProt P29371); assay: NK-3 receptor inhibition; type: binding
T2 sequence (P29371 1-465): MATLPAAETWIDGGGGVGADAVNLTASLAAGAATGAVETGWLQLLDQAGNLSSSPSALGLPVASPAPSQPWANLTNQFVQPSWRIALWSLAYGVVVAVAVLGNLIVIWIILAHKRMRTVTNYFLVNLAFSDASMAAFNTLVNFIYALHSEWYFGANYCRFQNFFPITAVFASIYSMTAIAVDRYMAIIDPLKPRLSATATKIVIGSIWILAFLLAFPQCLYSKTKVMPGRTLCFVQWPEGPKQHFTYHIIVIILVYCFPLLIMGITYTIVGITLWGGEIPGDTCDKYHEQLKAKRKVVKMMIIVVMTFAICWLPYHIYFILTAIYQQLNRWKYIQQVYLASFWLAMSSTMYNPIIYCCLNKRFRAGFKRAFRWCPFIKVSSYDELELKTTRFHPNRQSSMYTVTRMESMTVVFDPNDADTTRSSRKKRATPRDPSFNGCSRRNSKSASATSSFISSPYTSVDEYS

healthy subjects = assay: Gamma scintigraphic gastrointestinal motility study in healthy subjects; type: in vivo, human; conditions: single oral dose 20 mg or 200 mg
Protocol: A single-center, randomized, double-blind, placebo-controlled study is conducted to investigate the effect of tradipitant on small bowel transit time. A total of 15 healthy subjects, 12 men and 3 women, between the ages of 19 and 63 years are enrolled in the study and receive at least 1 dose of study medication. A total of 13 subjects complete the study. Subjects are randomized to receive 20 mg of tradipitant, 200 mg of tradipitant, or placebo as a single oral dose within each of 3 periods, co-administered with a capsule radiolabeled with a maximum of 1MBq ^111In. Four hours post-dose, all subjects also receive a second capsule radiolabeled with a maximum of 4MBq ^99mTc. Each subject receives all 3 doses during the study. For all dosing regimens, in vivo gamma scintigraphic studies are performed at predetermined intervals, and the following scintigraphic parameters are analyzed: onset and completion of gastric emptying, onset and completion of colon arrival, initiation and completion of small bowel transit, and initial and complete disintegration of the capsule (anatomical location and time).

Sequence of NK-1 receptor (Meriones unguiculatus, UniProt Q5DUB1) (Q5DUB1 whole entry): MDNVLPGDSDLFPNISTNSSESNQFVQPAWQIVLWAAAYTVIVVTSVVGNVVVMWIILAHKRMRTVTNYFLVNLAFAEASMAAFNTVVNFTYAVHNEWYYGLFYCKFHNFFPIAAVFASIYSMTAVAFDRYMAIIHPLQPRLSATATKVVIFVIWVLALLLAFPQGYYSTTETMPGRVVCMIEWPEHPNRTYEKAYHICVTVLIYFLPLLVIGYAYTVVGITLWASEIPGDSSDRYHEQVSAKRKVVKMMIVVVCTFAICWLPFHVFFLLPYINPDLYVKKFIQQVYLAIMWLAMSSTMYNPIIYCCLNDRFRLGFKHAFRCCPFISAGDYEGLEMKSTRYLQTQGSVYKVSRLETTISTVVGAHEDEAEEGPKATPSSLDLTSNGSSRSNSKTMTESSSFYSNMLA

time after administration with significant inhibition of foot-tapping (NK-1 receptor [1]; 0.1 mg/kg po): up to 7 hours
effect on foot-tapping by 16 hours after administration (NK-1 receptor [1]; 0.1 mg/kg po, 16 hours): significantly diminished
inhibition at 1 mg/kg (NK-1 receptor [1]; 1 mg/kg, 16 hours after administration): > 50%
ED50 (NK-1 receptor [1]; oral, 2 hours after administration, GR73632 3 pmol icv, read-out: ED50, inhibition of foot-tapping behavior): 0.03 ± 0.004 mg/kg
suppression of agonist-induced vocalization (NK-1 receptor [3]; 0.1 mg/kg oral, 7 hours after administration): significantly active
inhibitory activity on vocalization (NK-1 receptor [3]; at and below 0.1 mg/kg): retains significant inhibitory activity
inhibition of agonist-induced vocalization (NK-1 receptor [3]; oral, 10, 1.0, 0.1 and 0.05 mg/kg (each p<0.001)): significant inhibition
duration of activity (NK-1 receptor [3]; oral, guinea pig): exceeds 7 hours
minimum effective dose (MED), inhibition of vocalization (NK-1 receptor [3]; oral, guinea pig): 0.025 mg/kg
inhibition at NK-3 receptor (NK-3 receptor): no significant inhibition
Structure (SMILES): O=C(c1ccccc1Cl)c1cccnc1-c1nnn(Cc2cc(C(F)(F)F)cc(C(F)(F)F)c2)c1-c1ccncc1 [Tradipitant, {2-[1-(3,5-bistrifluoromethylbenzyl)-5-pyridin-4-yl-1H-[1,2,3]triazol-4-yl]-pyridin-3-yl}-(2-chlorophenyl)-methanone]
mean daily nausea score ([2]; 0 to 5 scale, open label 85 mg bid for 1 to 8 weeks, 64 patients): about 1.63
median daily nausea score ([2]; 0 to 5 scale, open label extension 85 mg bid, 64 subjects): 1.35
change of average percentage of nausea-free days compared to pre-treatment ([2]; 85 mg bid): doubled or greater
reduction of average daily nausea scores compared to pre-treatment ([2]; 85 mg bid): reduced by approximately one half
mean percentage of days nausea-free ([2]; open label extension 85 mg bid): 45.91%
median percentage of nausea-free days ([2]; open label extension 85 mg bid): 49.11%
effect on small bowel transit time (healthy subjects): statistically significant effect
effect on gastric emptying (healthy subjects; study underpowered): No effect
